From ChEMBL document CHEMBL6078719, “Discovery of acetohydroxyacid synthase inhibitors as anti-tuberculosis lead compounds from natural products” (Bioorg Med Chem, 2025)
Converted amounts (≈) assume the structure as drawn. The source made the active and inactive calls. No cut-off for these calls is given here.

Legend:
[1] = Inhibition of Mycobacterium tuberculosis Acetohydroxy acid synthase using pyruvate as substrate at 40 uM incubated for 10 mins followed by substrate addition by colorimetric assay relative to control
[2] = Inhibition of Mycobacterium tuberculosis Acetohydroxy acid synthase using pyruvate as substrate incubated for 10 mins followed by substrate addition by colorimetric assay
[3] = tested on: Mycolicibacterium smegmatis; assay: Antibacterial activity against Mycobacterium smegmatis assessed as inhibition of bacterial growth incubated for 3 days by alamar blue staining based assay; type: functional; conditions: 72 h, time 3 day
[4] = tested on: Mycobacterium tuberculosis; assay: Antibacterial activity against Mycobacterium tuberculosis assessed as inhibition of bacterial growth incubated for 3 days by alamar blue staining based assay; type: functional; conditions: 72 h, time 3 day
[5] = Binding affinity to Mycobacterium tuberculosis Acetohydroxy acid synthase assessed as binding constant by isothermal titration calorimetry
[6] = tested on: Mycobacterium tuberculosis; assay: Binding affinity to Mycobacterium tuberculosis Acetohydroxy acid synthase assessed as change in enthalpy by isothermal titration calorimetry
[7] = tested on: Mycobacterium tuberculosis; assay: Binding affinity to Mycobacterium tuberculosis Acetohydroxy acid synthase assessed as gibbs free energy change by isothermal titration calorimetry
[8] = tested on: Mycolicibacterium smegmatis; assay: Synergistic antibacterial activity against Mycobacterium smegmatis assessed as inhibition of bacterial growth incubated for 3 days in presence of rifampicin by alamar blue staining based assay; type: functional, organism-based; conditions: time 3.0 day
[9] = tested on: Mycobacterium tuberculosis; assay: Synergistic antibacterial activity against Mycobacterium tuberculosis assessed as inhibition of bacterial growth incubated for 3 days in presence of rifampicin by alamar blue staining based assay; type: functional, organism-based; conditions: time 3.0 day
[10] = Cytotoxicity against human THP-1 cells incubated for 48 hrs by CCK8 assay; type: toxicity, cell-based
[11] = Selectivity index, ratio of IC50 for cytotoxicity against human THP-1 cells to MIC90 for antimycobacterial activity against Mycobacterium tuberculosis; type: toxicity, cell-based; conditions: read-out: Selectivity Index
[12] = tested on: Mycobacterium tuberculosis; assay: Antimycobacterial activity against Mycobacterium tuberculosis assessed as inhibition of bacterial growth; type: functional

With COc1ccc(-c2oc3c(CCC(C)(C)O)c(O)cc(O)c3c(=O)c2O)cc1 the inhibition [1] was greater than 90%, the IC50 [2] was 32.4 µM and the MIC [3] was greater than 5000 µM.

Molecule CC1=C(O)C(=O)C=C2C1=CC=C1[C@@]2(C)CC[C@@]2(C)[C@@H]3C[C@](C)(C(=O)O)CC[C@]3(C)CC[C@]12C [CELASTROL] has an inhibition [1] greater than 90%, an IC50 [2] of 0.81 µM and an MIC [3] of 62.5 µM (≈ 28.2 µg/mL). It also gave an MIC [4] of 80 µM (≈ 36 µg/mL), a Kd [5] of 1.9 µM and a deltaH [6] of -9.87 kcal/mol. For the same molecule, the deltaG [7] was -7.81 kcal/mol, the Activity [8] was “inactive” and the Activity [9] was “inactive”. It also gave an IC50 at 48 h [10] of 12.5 µM, a selectivity ratio [11] of less than 1 and an MIC90 [12] of 80 µM (≈ 36 µg/mL).

CCCCCCCCCCCC1=C(O)C(=O)C=C(O)C1=O [EMBELIN] gave an inhibition [1] greater than 90%, an IC50 [2] of 9.46 µM and an MIC [3] greater than 5000 µM.

With O=C(/C=C/c1ccc(O)c(O)c1/C=C/c1ccc(O)c(O)c1)O[C@H](Cc1ccc(O)c(O)c1)C(=O)O [SALVIANOLIC ACID A] the inhibition [1] was greater than 90%, the IC50 [2] was 0.84 µM and the MIC [3] was 125 µM (≈ 61.8 µg/mL). The MIC [4] was 312 µM (≈ 155 µg/mL), the Activity [8] was “inactive” and the Activity [9] was “inactive”.

In the case of COC(=O)c1ccccc1S(=O)(=O)NC(=O)Nc1nc(C)cc(C)n1 [SULFOMETURON METHYL], the inhibition [1] is reported as greater than 90%, the IC50 [2] is reported as 3.68 µM and the MIC [3] is reported as 7.8 µM (≈ 2.84 µg/mL).
